Test results reported in publication PMC12051030, “Identification of inhibitors of the Salmonella FraB deglycase, a drug target” (FEBS Open Bio, 2025).
Like-named read-outs stand apart in the source and are kept apart here.

Experiments:
[1] = test system: Salmonella tolC mutant; assay: Growth assay, Salmonella tolC mutant in wild‐type or fra island mutant background; assay type: cell-based; conditions: early finding; could not be replicated after multiple attempts with stocks from different suppliers (data not shown)
Description: We sought to examine the possibility that some of the hits in the biochemical HTS were not picked up in the cell‐based assays due to efficient efflux mechanisms in Salmonella. Because TolC is an outer membrane protein channel that is essential for the ability of seven of the 10 inner membrane drug‐efflux transporters to expel structurally diverse molecules, we generated a Salmonella tolC mutant and tested the 121 compounds that we purchased (Sabag‐Daigle, A. & Ahmer, B. M. M., unpublished results). The tests were conducted in parallel using the tolC mutant in a wild‐type or fra island mutant background; the latter lacks the entire fra locus and is incapable of catabolizing F‐Asn and forming 6‐P‐F‐Asp. Thus, any inhibitor specific for FraB (and which was being effluxed in the wild‐type) will inhibit the tolC mutant in a wild‐type but not the fra island mutant background. A caveat is that efflux of compounds may also be achieved via TolC‐independent drug‐efflux pumps.

[2] = target: His6‐FraB (Salmonella FraB deglycase) (Salmonella enterica subsp. enterica serovar Typhimurium, UniProt Q8ZLD0); assay: FraB-G6PD coupled assay, Michaelis–Menten analysis for K I and mode of inhibition; assay type: biochemical
Method: To determine the K I of each inhibitor, 29 μL of master mix was added to two rows of a 384‐well Greiner plate, using a single‐channel pipette, and incubated at 20 °C for 20 min. A 12‐channel pipette was then used to transfer and mix 1 μL of varying [6‐P‐F‐Asp] to all 48 wells. The final reaction (30 μL) consisted of 25 mM HEPES pH 8.0 at 20 °C, 5 mM MgCl2, 0.1 mM EGTA, 0.5 mM NAD^+, 1 mU G6PD, 100 nM His6‐FraB, varying (6‐P‐F‐Asp) (between 8 and 12 concentrations), and varying [inhibitor] (between three and five concentrations) in 10% (v/v) DMSO. NADH fluorescence was monitored every 10 s for 10 min total on a SPARK® multi‐mode multiplate reader (Tecan), as described above, and plotted against time. Slopes of the linear range of each curve were converted to initial velocities, as described above, that were then plotted against [6‐P‐F‐Asp]. A hyperbolic curve was then fitted to the data to obtain the k cat and K m values according to the formula: v o = (V max × [S])/(K m + [S]).
To determine the correlation between the observed and expected initial velocities (Fig. S5A), these values were exported from Kaleidagraph, plotted against one another, and a curve was fit using the formula: y = mx + b. The differences between observed and expected initial velocities (residuals) were then depicted as box‐and‐whisker plots (Fig. S5B). Lineweaver‐Burk plots were generated by graphing 1/v o versus 1/[S] and curves were fit to the data with Kaleidagraph using the formula: 1/v o = (Km/V max).(1/[S]) + (1/V max). The k cat and K m parameters were then converted into α′ values by dividing the k cat of the control (no inhibitor) by either itself (α′= 1) or the k cat of test samples with variable [inhibitor]. Those α′ values were plotted against [inhibitor] and K I values were determined from the equation α = 1 + [I]/K I.
The initial velocities used to generate the Michaelis–Menten plots were also employed to obtain the IC50 vs [S]/K m plots. For a given [S], initial velocities were converted into relative activities and plotted versus [inhibitor]. […] The IC50 values determined from the IC50 vs [S]/K m plots were then used to plot 1/IC50 versus v o/V max. A curve was fit to the data using the formula: y = mx + b. The Y‐intercept of the 1/IC50 versus v o/V max plot is equal to 1/K IC, and the slope, for mixed inhibitors, is equal to 1/K IU – 1/K IC. […] Data analyses were performed as described above (see Tables S1–S7 for curve‐fit errors and goodness‐of‐fit values).

Chain of His6‐FraB (Salmonella FraB deglycase) (Q8ZLD0 entry or part of it): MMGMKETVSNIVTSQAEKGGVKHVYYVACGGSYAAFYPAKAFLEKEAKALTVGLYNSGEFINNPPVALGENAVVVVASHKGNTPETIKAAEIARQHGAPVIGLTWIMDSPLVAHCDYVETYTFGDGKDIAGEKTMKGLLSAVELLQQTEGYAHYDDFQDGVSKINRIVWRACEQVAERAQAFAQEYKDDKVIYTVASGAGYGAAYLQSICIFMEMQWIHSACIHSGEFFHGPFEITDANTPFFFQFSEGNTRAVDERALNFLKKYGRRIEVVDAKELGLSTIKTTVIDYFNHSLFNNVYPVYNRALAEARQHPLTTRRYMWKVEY

Q: `CC(C)Cc1cc(-c2nn3c(-c4ccccc4Cl)nnc3s2)n[nH]1` [3470:A09, 3‐(2‐chlorophenyl)‐6‐[5‐(2‐methylpropyl)‐1H‐pyrazol‐3‐yl]‐[1,2,4]triazolo[3,4‐b][1,3,4]thiadiazole] was tested. Which “inhibition of growth of Salmonella tolC, fra‐dependent” value [1] did it give?
A: initially shown to inhibit the growth of Salmonella tolC in a fra‐dependent manner

Q: And the “change of IC50 values with increasing [S]/K m” value ([2]; 'this trend' = IC50 does not vary with [S]/K m, change evident only from 0.2 to 1.6× [S]/K m)?
A: modest decrease

Q: What about the “slope in plots of 1/IC50 vs. v o/V max” value ([2]; Fig. S12) of the same compound?
A: weakly positive

Q: And the IC50 ([2]; Trial 1, 6-P-F-Asp 15.7 µM, S/Km 0.37381, unit from Fig. S11 axis, read-out: IC50 (IC50 versus [S]/Km plots))?
A: 29.3 µM

Q: And the IC50 ([2]; Trial 1, 6-P-F-Asp 31.3 µM, S/Km 0.745238, unit from Fig. S11 axis, read-out: IC50 (IC50 versus [S]/Km plots))?
A: 18.8 µM

Q: And the IC50 ([2]; Trial 1, 6-P-F-Asp 62.5 µM, S/Km 1.488095, unit from Fig. S11 axis, read-out: IC50 (IC50 versus [S]/Km plots))?
A: 20.5 µM

Q: What about the IC50 ([2]; Trial 1, 6-P-F-Asp 125 µM, S/Km 2.97619, unit from Fig. S11 axis, read-out: IC50 (IC50 versus [S]/Km plots)) of the same compound?
A: 20.2 µM

Q: What about the IC50 ([2]; Trial 1, 6-P-F-Asp 250 µM, S/Km 5.952381, unit from Fig. S11 axis, read-out: IC50 (IC50 versus [S]/Km plots)) of the same compound?
A: 20.6 µM

Q: What about the IC50 ([2]; Trial 1, 6-P-F-Asp 500 µM, S/Km 11.90476, unit from Fig. S11 axis, read-out: IC50 (IC50 versus [S]/Km plots)) of the same compound?
A: 19.4 µM

Q: What about the IC50 ([2]; Trial 1, 6-P-F-Asp 750 µM, S/Km 17.85714, unit from Fig. S11 axis, read-out: IC50 (IC50 versus [S]/Km plots)) of the same compound?
A: 19.5 µM

Q: And the IC50 ([2]; Trial 1, 6-P-F-Asp 1000 µM, S/Km 23.80952, unit from Fig. S11 axis, read-out: IC50 (IC50 versus [S]/Km plots))?
A: 21.3 µM

Q: And the IC50 ([2]; Trial 1, 6-P-F-Asp 2000 µM, S/Km 47.61905, unit from Fig. S11 axis, read-out: IC50 (IC50 versus [S]/Km plots))?
A: 22.7 µM

Q: What about the IC50 ([2]; Trial 1, 6-P-F-Asp 3000 µM, S/Km 71.42857, unit from Fig. S11 axis, read-out: IC50 (IC50 versus [S]/Km plots)) of the same compound?
A: 23.2 µM

Q: And the IC50 ([2]; Trial 2, 6-P-F-Asp 7.38 µM, S/Km 0.175714, unit from Fig. S11 axis, read-out: IC50 (IC50 versus [S]/Km plots))?
A: 19 µM

Q: What about the IC50 ([2]; Trial 2, 6-P-F-Asp 15.7 µM, S/Km 0.37381, unit from Fig. S11 axis, read-out: IC50 (IC50 versus [S]/Km plots)) of the same compound?
A: 13.6 µM

Q: And the IC50 ([2]; Trial 2, 6-P-F-Asp 31.3 µM, S/Km 0.745238, unit from Fig. S11 axis, read-out: IC50 (IC50 versus [S]/Km plots))?
A: 12.4 µM

Q: And the IC50 ([2]; Trial 2, 6-P-F-Asp 62.5 µM, S/Km 1.488095, unit from Fig. S11 axis, read-out: IC50 (IC50 versus [S]/Km plots))?
A: 12.6 µM

Q: What about the IC50 ([2]; Trial 2, 6-P-F-Asp 125 µM, S/Km 2.97619, unit from Fig. S11 axis, read-out: IC50 (IC50 versus [S]/Km plots)) of the same compound?
A: 11.4 µM

Q: What about the IC50 ([2]; Trial 2, 6-P-F-Asp 250 µM, S/Km 5.952381, unit from Fig. S11 axis, read-out: IC50 (IC50 versus [S]/Km plots)) of the same compound?
A: 11.6 µM

Q: What about the IC50 ([2]; Trial 2, 6-P-F-Asp 500 µM, S/Km 11.90476, unit from Fig. S11 axis, read-out: IC50 (IC50 versus [S]/Km plots)) of the same compound?
A: 11 µM

Q: And the IC50 ([2]; Trial 2, 6-P-F-Asp 750 µM, S/Km 17.85714, unit from Fig. S11 axis, read-out: IC50 (IC50 versus [S]/Km plots))?
A: 10.9 µM

Q: And the IC50 ([2]; Trial 2, 6-P-F-Asp 1000 µM, S/Km 23.80952, unit from Fig. S11 axis, read-out: IC50 (IC50 versus [S]/Km plots))?
A: 11.3 µM

Q: And the IC50 ([2]; Trial 2, 6-P-F-Asp 2000 µM, S/Km 47.61905, unit from Fig. S11 axis, read-out: IC50 (IC50 versus [S]/Km plots))?
A: 11.1 µM

Q: And the IC50 ([2]; Trial 2, 6-P-F-Asp 3000 µM, S/Km 71.42857, unit from Fig. S11 axis, read-out: IC50 (IC50 versus [S]/Km plots))?
A: 15.3 µM

Q: What about the Ki ([2]; from Michaelis–Menten analysis of FraB at different inhibitor concentrations, average and standard error from two measurements, read-out: K I) of the same compound?
A: 10.5 ± 3.5 µM

Q: And the Ki ([2]; independent trial shown in Fig. S11 panels A-L, read-out: KI from α′ vs [I] plot)?
A: 7 µM

Q: What about the mode of inhibition ([2]; kinetic analyses (Lineweaver‐Burk, α′ vs [I], IC50 vs [S]/K m, 1/IC50 vs v o/V max)) of the same compound?
A: mixed‐type uncompetitive

Q: What about the IC50 ([2]; single trial shown in Fig. 5, read-out: IC50, mean and standard deviation of all IC50 values in IC50 vs [S]/Km plot) of the same compound?
A: 13 ± 3 µM

Q: And the Ki ([2]; single trial shown in Fig. 5, read-out: KI from α′ vs [I] plot)?
A: 14 µM
